Reference: patent publication US20080181971A1, “Combination Cancer Treatments Comprising Elsamitrucin and Other Agents” (priority 2007, published 2008)
Where two headings read alike, the source gives them in different places.

Assays:
Assay type in all cases: cell-based
[1] = test system: HT29 human colon carcinoma cell line; assay: MTT growth inhibition assay, single agents and fixed-ratio combinations with elsamitrucin (Chou-Talalay, CalcuSyn), HT29
Procedure: (§1) These individual agents and their combinations were evaluated for in vitro activity against the HT29 colon carcinoma, SKMES non-small cell lung carcinoma, and Daudi B-lymphoblastic cell lines. Cell growth in 96-well microculture plates was determined with a semi-automated MTT assay. Efficacies of drug combinations were analyzed according to the methods of Chou and Talalay, utilizing CalcuSyn software. Twenty-one in vitro experiments were conducted to determine the individual and combined growth inhibitory activities of elsamitrucin and the ten selected agents in the three cell lines.
(§2) b. Cell Lines. The human HT29 colon carcinoma, SKMES non-small cell lung carcinoma, and Daudi B-lymphoblastic cell lines were originally obtained from ATCC (American Type Culture Collection). These cell lines have been maintained and stored as frozen stocks. […] The medium for Daudi cells was additionally supplemented with 1 mM sodium pyruvate.
(§3) c. Growth Inhibition Assay. Anti-proliferative activities against the HT29, SKMES, and Daudi cell lines were evaluated in vitro by the MTT assay. Cells (1,500-2,000 cells/well) were seeded in a 96-well microculture plate in 180 pL of medium/well. […] DMSO was present in all wells at a final concentration of 0.1%. […] When the appropriate cell density was attained in the control wells, the plates were centrifuged briefly, and 100 pL of the growth medium was removed. The cell cultures were incubated with 50 μL of MTT reagent (1 mg/mL in Dulbecco's phosphate-buffered saline) for 4 hr at 37° C. The resultant purple formazan precipitate was solubilized with 200 μL of 0.04 N HCl in isopropanol.
(§4) The results of each experiment were stored in Excel format.
(§5) d. Preliminary Experiments: Design and Data Analysis. […] The initial experiments utilized serial three-fold dilutions of the drugs to produce ten test concentrations over a broad concentration range. Based on the initial results, a narrower concentration range was selected, and serial 1:1.5 dilutions were utilized to produce ten test concentrations. Experiments were repeated as needed.
(§6) For assays that utilized lower dilution factors to produce narrower concentration ranges, the results were analyzed with both Prism and CalcuSyn (as described below) to allow comparison of the IC50 and Da, values. The results guided the selection of appropriate concentration ranges and concentration ratios for the combination experiments.
(§7) e. Combination Experiments: Design and Data Analysis. The fixed-ratio design of Chou was used for the combination experiments. For each experiment, the drug solutions were mixed at a ratio that was expected to provide approximately equipotent concentrations, and the mixture was serially diluted with medium containing 1% DMSO to yield 10× stock solutions of the test concentrations. […] Each agent was tested individually and in combination at seven concentrations. The concentration range selected for each assay was designed to bracket the concentrations that produced half-maximal effects (ED50) with each single agent and their mixture. The concentrations used for the single-drug assays were twice as high as their concentrations in the mixture. Each assay was performed in quadruplicate. For each drug combination, the individual agents and their mixture were assayed on the same 96-well plate. The effects of the individual drugs and their combinations were analyzed by the method of Chou and Talalay. The results of each experiment were entered into CalcuSyn (BIOSOFT) for dose-effect analysis.
(§8) where Acontrol and Adrug are the respective absorbances of vehicle control and drug-treated wells in the MIT assay.
(§9) where the slope, m, is related to the sigmoidicity of the dose-effect curve, with m=1, >1, and <1 indicating hyperbolic, sigmoidal, and reverse sigmoidal shapes, respectively.

[2] = test system: SKMES human non-small cell lung carcinoma cell line; assay: MTT growth inhibition assay, single agents and fixed-ratio combinations with elsamitrucin (Chou-Talalay, CalcuSyn), SKMES; conditions: for IC50: Homo sapiens
Procedure: as §1, §2, §3, §4, §5, §6, §7, §8, §9

[3] = test system: Daudi human lymphoma cell line; assay: MTT growth inhibition assay, single agents and fixed-ratio combinations with elsamitrucin (Chou-Talalay, CalcuSyn), Daudi; conditions: Homo sapiens, Daudi
Procedure: as §1, §2, §3, §4, §5, §6, §7, §8, §9

[4] = Homo sapiens, HT-29, HT29, single agent on the same plate as the combination, read-out: Dm Value, Individually, Second Agent
[5] = Homo sapiens, HT-29, SPA-01 (HT29-e21), single agent, dilution 1:3, read-out: Prism IC50
[6] = Homo sapiens, HT-29, SPA-04 (HT29-e22), single agent, dilution 1:1.5, read-out: CalcuSyn Dm
[7] = Homo sapiens, HT-29, SPA-04 (HT29-e22), single agent, dilution 1:1.5, read-out: Prism IC50
[8] = Homo sapiens, HT-29, average of preliminary single-agent experiments, HT29, read-out: Average IC50, Dm value
[9] = SKMES growth inhibition, second agent alone, one value per plate (Experiment ID), read-out: Dm Value (95% Confidence Interval), Individually, Second Agent
[10] = SKMES, single agent on the same plate as the combination, read-out: Dm Value, Individually, Second Agent
[11] = SPA-02 (SKMES-e22), single agent, dilution 1:3, read-out: Prism IC50
[12] = SPA-03 (SKMES-e23), single agent, dilution 1:1.5, read-out: CalcuSyn Dm
[13] = SPA-03 (SKMES-e23), single agent, dilution 1:1.5, read-out: Prism IC50
[14] = average of preliminary single-agent experiments, SKMES, read-out: Average IC50, Dm value
[15] = Daudi growth inhibition, second agent alone, one value per plate, Table 8 (Supplement), read-out: Dm Value (95% Confidence Interval), Individually, Second Agent
[16] = Daudi growth inhibition, second agent alone, Table 8, read-out: Dm Value (95% Confidence Interval), Individually, Second Agent
[17] = SPA-05 (Daudi-e01), single agent, dilution 1:3, read-out: Prism IC50
[18] = SPA-08 (Daudi-e02), single agent, dilution 1:1.5, read-out: CalcuSyn Dm
[19] = SPA-08 (Daudi-e02), single agent, dilution 1:1.5, read-out: Prism IC50
[20] = average of preliminary single-agent experiments, read-out: Average IC50, Dm value
[21] = read-out: approximate Dm values for the second drugs as single agents
[22] = SPA-09 (SKMES-e25), single agent, dilution 1:1.5, read-out: CalcuSyn Dm
[23] = SPA-09 (SKMES-e25), single agent, dilution 1:1.5, read-out: Prism IC50
[24] = Homo sapiens, HT-29, SPA-10 (HT29-e24), single agent, dilution 1:1.5, read-out: CalcuSyn Dm
[25] = Homo sapiens, HT-29, SPA-10 (HT29-e24), single agent, dilution 1:1.5, read-out: Prism IC50
[26] = HT29, single agent on the same plate as the combination, read-out: Dm Value, Individually, Second Agent
[27] = SPA-15 (Daudi-e03), single agent, dilution 1:1.5 (elsamitrucin 1:1.33), read-out: CalcuSyn Dm
[28] = SPA-15 (Daudi-e03), single agent, dilution 1:1.5 (elsamitrucin 1:1.33), read-out: Prism IC50

Row | SMILES | IC50 [1, 4] [µM] | IC50 [1, 5] [µM] | IC50 [1, 6] [µM] | IC50 [1, 7] [µM] | IC50 [1, 8] [µM] | IC50 [2, 9] [µM] | IC50 [2, 10] [µM] | IC50 [2, 11] [µM] | IC50 [2, 12] [µM] | IC50 [2, 13] [µM] | IC50 [2, 14] [µM] | IC50 [3, 15] [µM] | IC50 [3, 16] [µM] | IC50 [3, 17] [µM] | IC50 [3, 18] [µM] | IC50 [3, 19] [µM] | IC50 [3, 20] [µM] | IC50 [3, 21] [µM] | IC50 [2, 22] [µM] | IC50 [2, 23] [µM] | other results
1 | COc1cc([C@@H]2c3cc4c(cc3[C@@H](O[C@@H]3O[C@@H]5CO[C@@H](C)O[C@H]5[C@H](O)[C@H]3O)[C@H]3COC(=O)[C@H]23)OCO4)cc(OC)c1O [Etoposide, etoposide] | 0.71 | ~0.9 | 0.766 | 0.698 | 0.732 | 0.237 | 0.237 | 0.199 | 0.317 | 0.287 | 0.268 | 0.047 | 0.047 | 0.0202 | 0.023 | 0.031 | 0.025 | ~0.047 |  |  | 
2 | CN(Cc1cnc2nc(N)nc(N)c2n1)c1ccc(C(=O)N[C@@H](CCC(=O)O)C(=O)O)cc1 [Methotrexate, methotrexate] | 0.022 | 0.0254 | 0.023 | 0.018 | 0.022 | 0.012 | 0.0082 | ~0.0006 |  |  | 0.01 | 0.045 | 0.045 | ~0.02 | 0.05 | 0.049 | 0.05 | ~0.045 | 0.0095 | 0.0085 | IC50 ([2]; SPA-14 (SKMES-e27), single agent, dilution 1:1.5 (carmustine also 1:2, r12), read-out: CalcuSyn Dm): 0.0107 µM; IC50 ([2]; SPA-14 (SKMES-e27), single agent, dilution 1:1.5 (carmustine also 1:2, r12), read-out: Prism IC50): 0.0104 µM
3 | Nc1ccn([C@@H]2O[C@H](CO)[C@@H](O)C2(F)F)c(=O)n1 [Gemcitabine, gemcitabine] | 0.004 | 0.0046 |  | 0.01 | 0.005 | 0.0018 | 0.0028 | 0.0015 | 0.0018 | 0.0025 | 0.002 | 0.0012 | 0.0012 | 0.0006 | 0.0013 | 0.0014 | 0.001 | ~0.0012 |  |  | IC50 [1, 24]: 0.006 µM; IC50 [1, 25]: 0.004 µM
4 | CC[C@@]1(O)C(=O)OCc2c1cc1n(c2=O)Cc2cc3ccccc3nc2-1 [Camptothecin, camptothecin] |  | 0.016 | 0.026 | 0.023 | 0.153 | 0.008 | 0.008 | 0.006 | 0.011 | 0.011 | 0.009 | 0.0093 | 0.0093 | 0.0085 | 0.011 | 0.0095 | 0.01 | ~0.0093 |  |  | IC50 [1, 24]: 0.148 µM; IC50 [1, 25]: 0.55 µM; increase of Dm in the combination ([2]; SKMES, in combination with elsamitrucin versus single agent): less than 1.5 fold
5 | O=NN(CCCl)C(=O)NCCCl [Carmustine, carmustine] |  | > 10 | 60 | 72 | 66 | 69.8 | 69.8 | 1.44 |  |  |  |  | 42 |  | 25 | 28 | 24.9 | ~42 | ~96 | ~78 | IC50 [1, 26]: 128 µM; IC50 [3, 27]: 25.8 µM; IC50 [3, 28]: 20.8 µM
6 | CC(C)C[C@H](NC(=O)[C@H](Cc1ccccc1)NC(=O)c1cnccn1)B(O)O [Bortezomib, bortezomib] | 0.0178 | 0.012 | 0.029 | 0.023 | 0.021 | 0.024 | 0.016 |  | 0.0215 | 0.0195 | 0.021 | 0.0039 | 0.0039 | 0.0037 | 0.0034 | 0.004 | 0.004 | ~0.0039 |  |  | 
7 | O=c1[nH]cc(F)c(=O)[nH]1 [5-Fluorouracil, 5-fluorouracil] |  | ~3.3 | 0.134 | 0.28 | 2.04 | 4.35 | 4.35 | 0.438 | 5.2 | ~3.3 | 3.59 | 11.7 | 11.7 | ~9.2 | 11.1 | 12.7 | 12.2 | ~11.7 | 5.58 | 3.13 | change of Dm in the mixture versus single agent ([1]; HT29): increased only slightly; IC50 [1, 26]: 0.786 µM; IC50 [1, 24]: 4.2 µM; IC50 [1, 25]: 1.65 µM; IC50 [3, 27]: 13.2 µM; IC50 [3, 28]: 11.9 µM
8 | COc1cccc2c1C(=O)c1c(O)c3c(c(O)c1C2=O)C[C@@](O)(C(=O)CO)C[C@@H]3O[C@H]1C[C@H](N)[C@H](O)[C@H](C)O1 [Doxorubicin, doxorubicin] |  | 0.04 | 0.057 | 0.029 | 0.042 | 0.083 | 0.056 | 0.007 | ~0.2 | ~0.05 | 0.017 | 0.009 | 0.009 | ~0.001 | ~0.033 | ~0.0095 | 0.005 | ~0.009 | 0.021 | 0.023 | IC50 [1, 26]: 0.048 µM; IC50 [3, 27]: 0.005 µM; IC50 [3, 28]: 0.005 µM
